Test results from patent US5393875A, “Amino acid derivatives having renin inhibiting activity” (Hoffmann-La Roche Inc., priority 1991, dated 1995).

Columns and labels:
human renin = molecular target: T1, human renin (Homo sapiens, UniProt P00797); assay: Test A: in vitro test with pure human renin; format: biochemical; conditions: human tetradecapeptide substrate, pH 7.4, 3 hours at 37° C., angiotensin I by RIA
T1 sequence (P00797 67-406): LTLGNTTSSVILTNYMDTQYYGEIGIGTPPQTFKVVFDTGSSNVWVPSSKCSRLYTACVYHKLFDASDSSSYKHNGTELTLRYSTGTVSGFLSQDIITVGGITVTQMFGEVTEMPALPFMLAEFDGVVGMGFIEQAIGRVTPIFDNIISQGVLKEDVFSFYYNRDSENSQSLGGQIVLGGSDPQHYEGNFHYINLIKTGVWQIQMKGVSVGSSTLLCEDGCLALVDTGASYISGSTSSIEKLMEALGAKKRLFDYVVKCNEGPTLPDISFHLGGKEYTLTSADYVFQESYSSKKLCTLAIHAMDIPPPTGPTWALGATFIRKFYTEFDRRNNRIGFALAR
Procedure: A. In vitro test with pure human renin
The test is carried out in Eppendorf test tubes. The incubation mixture consists of (1) 100 μl of human renin in buffer A (0.1M sodium phosphate solution, pH 7.4, containing 0.1% bovine serum albumin, 0.1% sodium azide and 1 mM ethylenediaminetetraacetic acid), sufficient for a renin activity of 2-3 ng of angiotensin I/ml/hr; (2) 145 μl of buffer A: (3) 30 μl of 10 μM human tetradecapeptide renin substrate (hTD) in 10 mM hydrochloric acid: (4) 15 μl of dimethyl sulphoxide with or without inhibitor and (5) 10 μl of a 0.03 molar solution of hydroxyquinoline sulphate in water.
The samples are incubated for three hours at 37° C. and, respectively, 4° C. in triplicate. 2×100 μl samples per experimental test tube are used in order to measure the production of angiotensin I via RIA (standard radioimmunoassay; clinical assay solid phase kit). Cross reactivities of the antibody used in the RIA are: angiotensin I 100%; angiotensin II 0.0013%; hTD (angiotensin I-Val-Ile-His-Ser-OH 0.09%. The production of angiotensin I is determined by the difference between the experiment at 37° C. and that at 4° C.
(§1) The following controls are carried out:
(a) Incubation of hTD samples without renin and without inhibitor at 37° C. and 4° C. The difference between these two values gives the base value of the angiotensin I production.
(b) Incubation of hTD samples with renin, but without inhibitor at 37° C. and 4° C. The difference between these values gives the maximal value of angiotensin I production.
In each sample the base value of the angiotensin I production is subtracted from the angiotensin I production which is determined. The difference between the maximal value and the base value gives the value of the maximal substrate hydrolysis (=100% ) by renin.
The results are given as IC50 values which denote that concentration of the inhibitor at which the enzymatic activity is inhibited by 50%. The IC50 values are determined from a linear regression curve from a logit-log plot.

renin in human plasma = molecular target: T2, renin in human plasma (Homo sapiens, UniProt P00797); assay: Test B: in vitro test with human plasma; format: biochemical; conditions: pH 6, 3 hours at 37° C., angiotensin I by RIA
T2 construct: The test solution comprises (1) 225 μl of plasma; from tissue; host or cells: human plasma
T2 sequence (P00797 67-406): T1 sequence (P00797 67-406)
Procedure: B. In vitro test with human plasma
The test solution comprises (1) 225 μl of plasma, (2) 10 μl of 8-hydroxyquinoline sulphate in water, (3) 12 μl of sodium phosphate buffer (0.1M), pH 7.4, and […] of different concentrations of renin inhibitor in dimethyl sulphoxide. Tho resulting pH value (pH 6) of tho test solution is stable for the duration of the subsequent incubation. The test tubes are then incubated at 37° C. for 3 hours. The enzyme activity is expressed by determining the angiotensin I produced, which is determined using a comercially available radioimmunoassay kit (Clinical Assays, Cambridge, Mass.).
as §1
MaxP: Maximal production (maximal enzyme activity) in the absence of a renin inhibitor.
MinP: Minimal production (enzyme activity blank) in the presence of a supramaximal concentration of a renin inhibitor.
The MinP is subtracted from the respective angiotensin production in each experiment. These values are converted into percentage inhibition by comparison with the maximal enzyme activity MaxP-MinP. The degree of inhibition is expressed by the IC50 value, i.e. the concentration of inhibitor which reduces the accumulation of angiotensin I by 50%.

Structure (SMILES)	IC50 (human renin)	IC50 (renin in human plasma)
COC(=O)[C@H](NC(=O)OC(C)(C)C)C(C)(C)S(=O)(=O)CC(Cc1ccccc1)C(=O)N[C@@H](Cc1c[nH]cn1)C(=O)N[C@@H](CC1CCCCC1)[C@@H](O)[C@@H](O)C1CC1 (single isomer, unassigned) [C, tert-Butyl [(S)-2-[[(S or R)-2-[[(S)-1-[[(1S,2R,3S)-1-(cyclohexylmethyl)-3-cyclopropyl-2,3-dihydroxypropyl]carbamoyl]-2-imidazol-4-ylethyl]carbamoyl]-3-phenylpropyl]sulfonyl]-1-(methoxycarbonyl)-2-methylpropyl]carbamate]	0.061 nM	0.14 nM
CC(C)(C(=O)N[C@H]1C(O)O[C@H](CO)[C@@H](O)[C@@H]1O)S(=O)(=O)C[C@@H](Cc1ccccc1)C(=O)N[C@@H](Cc1c[nH]cn1)C(=O)N[C@@H](CC1CCCCC1)[C@@H](O)[C@@H](O)C1CC1 (stereo partly drawn) [B, 2-[2-[[(S)-2-[[(S)-1-[[(1S,2R,3S)-1-(Cyclohexylmethyl)-3-cyclopropyl-2,3-dihydroxypropyl]carbamoyl]-2-imidazol-4-ylethyl]carbamoyl]-3-phenylpropyl]sulfonyl]-2-methylpropionamido]-2-deoxy-D-glucopyranose]	0.3 nM	0.11 nM
CC(C)(C(=O)N1CCOCC1)S(=O)(=O)C[C@@H](Cc1ccccc1)C(=O)N[C@@H](Cc1c[nH]cn1)C(=O)N[C@@H](CC1CCCCC1)[C@@H](O)[C@@H](O)C1CC1 [A, (S)-N-[(1S,2R,3S)-1-(Cyclohexylmethyl)-3-cyclopropyl-2,3-dihydroxypropyl]-α-[(S)-α-[[[1-(morpholinocarbonyl)-1-methylethyl]sulfonyl]methyl]hydrocinnamamido]imadazole-4-propionamide]	0.03 nM	0.1 nM
COCC(=O)OCC(C)(C)S(=O)(=O)CC(Cc1ccccc1)C(=O)N[C@@H](Cc1c[nH]cn1)C(=O)N[C@@H](CC1CCCCC1)[C@@H](O)[C@@H](O)C1CC1 (single isomer, unassigned) [D, 2-[[(S or R)-2-[[(S)-1-[[(1S,2R,3S)-1-(cyclohexylmethyl)-3-cyclopropyl-2,3-dihydroxypropyl]carbamoyl]-2-imidazol-4-ylethyl]carbamoyl]-3-phenylpropyl]sulfonyl]-2-methylpropyl methoxyacetate]	0.2 nM	< 0.1 nM
